Experimental data from patent publication US12606528B2, “Methods and materials for inhibiting NF-kB activity” (University of Pittsburgh - Of the Commonwealth System of …, priority 2019, dated 2026).
Read-outs that look alike come from different tables or passages of the source.

Experiments:
NF-κB = NF-κB assay: THP1-NF-κB-LUC cells, LPS-stimulated secreted luciferase; type: cell-based; conditions: read-out: IC50 (NF-κB assay)
How it was run: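 THP1-NF-κB-LUC cells (25k/well) were pretreated with compounds for 2 h, then stimulated with LPS (10 ng/mL) for 18 h. Secreted luciferase was measured and normalized to vehicle, and IC50 was fitted from the concentration series.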

TNF release = experiment: TNF assay: TNF release from LPS-stimulated human PBMCs (TNF ELISA); type: cell-based; conditions: PBMC, read-out: IC50 (TNF assay)
How it was run: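 TNF ELISA on supernatants read-out; cells were 10k human PBMCs/well given LPS at 10 ng/mL for 18 h after a 2 h compound pre-incubation across a concentration series, with IC50 derived for suppression of TNF secretion.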

[1] = THP1-NF-κB-LUC cells, compounds 2 hours before LPS (10 ng/mL) for 18 hours, secreted luciferase
[2] = human PBMCs, compounds 2 hours before LPS (10 ng/ml) for 18 hours, supernatant TNF ELISA
[3] = THP1-NF-κB-LUC cells, LPS-stimulated
[4] = LPS-stimulated human PBMCs, TNF ELISA

Structure (SMILES)	IC50 (NF-κB; [1]) [µM]	IC50 (TNF release; [2]) [µM]	IC50 (NF-κB; [3]) [µM]	IC50 (TNF release; [4]) [µM]	other results
COc1ccc(NS(=O)(=O)c2cc3c(cc2Br)N(C)C(=O)C(C)O3)cc1Cl (stereo not shown) [BC19919]	> 10	> 10	–	–	–
CCC1Oc2cc(S(=O)(=O)Nc3ccc(C)c(Cl)c3)c(Br)cc2N(C)C1=O (stereo not shown) [BC19938]	0.1 to 1	1 to 10	–	–	–
CC(C)CC1Oc2c(cc(Br)cc2S(=O)(=O)Nc2ccc(OC(F)(F)F)cc2)NC1=O (stereo not shown) [BC19757]	< 0.1	> 10	–	–	–
O=C(O)c1ccc2nc(-c3ccc(F)cc3)c(-c3cccs3)nc2c1 [BC19156]	–	–	–	–	IC50 (NF-κB): 1 to 10 µM; IC50 (TNF release; Homo sapiens): > 10 µM
O=C1CCOc2cc(S(=O)(=O)Nc3ccccc3)c(Br)cc2N1 [BC19689]	–	–	> 10	1 to 10	–
CC1Oc2cc(S(=O)(=O)Nc3ccc(C#N)cc3)c(Cl)cc2NC1=O (stereo not shown) [BC19729]	0.1 to 1	> 10	–	–	–
CCc1cccc(NS(=O)(=O)c2cc3c(cc2Br)N(C)C(=O)C(C)O3)c1 (stereo not shown) [BC19901]	1 to 10	> 10	–	–	–
O=c1c(S(=O)(=O)c2ccc(F)cc2)c[nH]c2ccncc12 [BC19123]	1 to 10	> 10	–	–	–
COc1ccc(NS(=O)(=O)c2cc(Br)cc3c2OCCNC3=O)cc1Cl [BC19614]	–	–	> 10	> 10	–
CCc1cccc(NS(=O)(=O)c2cc(Br)cc3c2OC(CC(C)C)C(=O)N3)c1 (stereo not shown) [BC19771]	< 0.1	> 10	–	–	–
CCNC(=O)Nc1ccc2nc(-c3ccc(F)cc3)c(-c3ccc(F)cc3)nc2c1 [BC19563]	–	–	< 0.1	> 10	–
CC(C)CS(=O)(=O)c1sc(-c2ccc(Cl)cc2)nc1S(=O)(=O)c1ccc(Cl)cc1 [BC19529]	–	–	> 10	1 to 10	–
CN1CCN(C(=O)C2Cc3nc(-c4ccc(F)cc4)c(-c4ccc(F)cc4)nc3C2)CC1 [BC19723]	–	–	0.1 to 1	> 10	–
COCCS(=O)(=O)c1sc(-c2ccc(Cl)cc2)nc1S(=O)(=O)c1ccc(F)cc1 [BC19541]	–	–	1 to 10	1 to 10	–
CS(=O)(=O)c1oc(-c2ccccc2)nc1S(=O)(=O)c1ccc(F)c(F)c1 [BC19262]	–	–	0.1 to 1	< 0.1	–
O=C1COc2c(cc(Cl)cc2S(=O)(=O)Nc2ccc(Cl)cc2)N1 [BC19169]	< 0.1	> 10	–	–	–
CC(C)C[S+]([O-])c1sc(-c2cccc(F)c2)nc1S(=O)(=O)c1ccc(F)cc1 (stereo not shown) [BC19588]	–	–	1 to 10	> 10	–
CCC1Oc2cc(S(=O)(=O)Nc3cc(Cl)ccc3C)c(Cl)cc2NC1=O (stereo not shown) [BC19215]	1 to 10	> 10	–	–	–
CC1Oc2cc(S(=O)(=O)N3CCN(C)CC3)c(Br)cc2NC1=O (stereo not shown) [BC19219]	> 10	> 10	–	–	–

Structure (SMILES)	IC50 (NF-κB; [1]) [µM]	IC50 (TNF release; [2]) [µM]	IC50 (NF-κB; [3]) [µM]	IC50 (TNF release; [4]) [µM]	other results
C/N=C(\c1ccc2nc(-c3ccc(F)cc3)c(-c3ccc(F)cc3)nc2c1)N1CCN(C)CC1 [BC19668]	–	–	0.1 to 1	> 10	–
O=C(NCCN1CCOCC1)c1ccc2nc(-c3ccc(F)cc3)c(-c3ccc(F)cc3)nc2c1 [BC19237]	–	–	< 0.1	> 10	–
O=C1NCCOc2c1cc(Br)cc2S(=O)(=O)Nc1ccc(OC(F)(F)F)cc1 [BC19550]	–	–	< 0.1	> 10	–
CCC1Oc2cc(S(=O)(=O)Nc3ccc(OC(F)(F)F)cc3)c(Br)cc2N(C)C1=O (stereo not shown) [BC19922]	< 0.1	> 10	–	–	–
CNC(=O)c1ccc2nc(-c3ccc(OC(F)(F)F)cc3)c(-c3ccc(OC(F)(F)F)cc3)nc2c1 [BC19447]	–	–	> 10	> 10	–
CS(=O)(=O)c1cc2c(c(S(=O)(=O)Nc3cccc(Cl)c3)c1)OCC(=O)N2 [BC19427]	< 0.1	> 10	–	–	–
O=S(=O)(c1ccc(Cl)cc1)c1nc(-c2cccc(F)c2)sc1[S+]([O-])C1CCCCC1 (stereo not shown) [BC19532]	–	–	> 10	> 10	–
CN1CCN(CCNC(=O)Nc2ccc3nc(-c4ccc(F)cc4)c(-c4ccc(F)cc4)nc3c2)CC1 [BC19616]	–	–	0.1 to 1	1 to 10	–
CC1Oc2cc(S(=O)(=O)Nc3ccc(F)c(F)c3)c(Br)cc2NC1=O (stereo not shown) [BC19284]	< 0.1	> 10	–	–	–
CCC1Oc2cc(S(=O)(=O)Nc3ccc(OC)cc3)c(Br)cc2N(C)C1=O (stereo not shown) [BC19936]	< 0.1	> 10	–	–	–
CC1Oc2cc(S(=O)(=O)Nc3ccc(OC(F)(F)F)cc3)c(Cl)cc2NC1=O (stereo not shown) [BC19354]	< 0.1	> 10	–	–	–
CC1Oc2c(cc(Cl)cc2S(=O)(=O)Nc2ccc(F)cc2)NC1=O (stereo not shown) [BC19722]	< 0.1	1 to 10	–	–	–
Cc1ccc(NS(=O)(=O)c2cc3c(cc2Cl)NC(=O)C(C)O3)cc1F (stereo not shown) [BC19700]	< 0.1	> 10	–	–	–
COc1ccc2[nH]cc(S(=O)(=O)c3ccc(F)cc3)c(=O)c2n1 [BC19202]	> 10	> 10	–	–	–
Fc1ccc(-c2nc3ccc(-c4nnn[nH]4)cc3nc2-c2ccc(F)cc2)cc1 [BC19144]	–	–	1 to 10	> 10	–
Cc1ccc(NS(=O)(=O)c2cc3c(cc2Br)NC(=O)CCO3)cc1F [BC19653]	–	–	> 10	> 10	–
Cn1cnnc1-c1cnc2nc(-c3ccc(F)cc3)c(-c3ccc(F)cc3)nc2c1 [BC19496]	–	–	< 0.1	> 10	–
Cc1ccc(NS(=O)(=O)c2cc3c(cc2Br)NC(=O)C(CC(C)C)O3)cc1Cl (stereo not shown) [BC19768]	1 to 10	> 10	–	–	–
CCC1Oc2c(cc(Br)cc2S(=O)(=O)Nc2ccc(F)c(F)c2)N(C)C1=O (stereo not shown) [BC19925]	< 0.1	1 to 10	–	–	–

Structure (SMILES)	IC50 (NF-κB; [1]) [µM]	IC50 (TNF release; [2]) [µM]	IC50 (NF-κB; [3]) [µM]	IC50 (TNF release; [4]) [µM]	other results
CC(C)OC(=O)Nc1ccc2nc(-c3ccc(F)cc3)c(-c3ccc(F)cc3)nc2c1 [BC19195]	–	–	1 to 10	> 10	–
COc1ccc(NS(=O)(=O)c2cc(Br)cc3c2OC(C)C(=O)N3C)cc1Cl (stereo not shown) [BC19909]	> 10	> 10	–	–	–
Cc1ccc(Cl)c2c(=O)c(S(=O)(=O)c3ccc(F)c(F)c3)c[nH]c12 [BC19254]	< 0.1	> 10	–	–	–
CC1Oc2c(cc(Cl)cc2S(=O)(=O)Nc2ccc(OC(F)(F)F)cc2)NC1=O (stereo not shown) [BC19394]	< 0.1	> 10	–	–	–
Cc1nnc(-c2ccc3nc(-c4ccc(F)cc4)c(-c4ccc(F)cc4)nc3c2)o1 [BC19141]	–	–	0.1 to 1	> 10	–
O=c1c(S(=O)(=O)c2ccc(F)cc2)c[nH]c2ccc(Cl)cc12 [BC19160]	> 10	> 10	–	–	–
COCC[S+]([O-])c1[nH]c(-c2ccccc2)nc1S(=O)(=O)c1ccc(Cl)cc1 (stereo not shown) [BC19420]	–	–	> 10	> 10	–
CCCNS(=O)(=O)c1cc2c(cc1Br)NC(=O)C(CC)O2 (stereo not shown) [BC19222]	> 10	> 10	–	–	–
Cc1ccc(NS(=O)(=O)c2cc(Cl)cc3c2OCC(=O)N3)cc1Cl [BC19176]	< 0.1	> 10	–	–	–
CCC1Oc2cc(S(=O)(=O)Nc3ccc(C(C)C)cc3)c(Cl)cc2NC1=O (stereo not shown) [BC19210]	< 0.1	> 10	–	–	–
CC(C)(C)C1CCC(NS(=O)(=O)c2cc(Br)cc3c2OCC(=O)N3)CC1 (stereo not shown) [BC19380]	> 10	> 10	–	–	–
CCc1cccc(NS(=O)(=O)c2cc(S(C)(=O)=O)cc3c2OCC(=O)N3)c1 [BC19487]	0.1 to 1	> 10	–	–	–
COCCCNS(=O)(=O)c1ccc2nc(-c3ccc(F)cc3)c(-c3ccc(F)cc3)nc2c1 [BC19554]	–	–	< 0.1	> 10	–
CC1Oc2c(cc(Br)cc2S(=O)(=O)NCc2ccc(OC(F)(F)F)cc2)NC1=O (stereo not shown) [BC19363]	< 0.1	> 10	–	–	–
Cc1ccc(NS(=O)(=O)c2cc3c(cc2Br)NC(=O)CCO3)cc1Cl [BC19659]	–	–	> 10	> 10	–
O=S(=O)(CC1CC1)c1sc(-c2cccc(F)c2)nc1S(=O)(=O)c1ccc(F)cc1 [BC19598]	–	–	1 to 10	1 to 10	–
CCS(=O)(=O)c1oc(-c2ccc(C)cc2)nc1S(=O)(=O)c1ccc(Br)cc1 [BC19129]	–	–	< 0.1	0.1 to 1	–
O=c1c(S(=O)(=O)c2ccc(F)c(F)c2)c[nH]c2ccncc12 [BC19201]	> 10	> 10	–	–	–
